Measured values as given in patent publication US10717730B1, “Dihydroisoquinoline compound” (SUZHOU ARK BIOPHARMACEUTICAL CO., LTD., priority 2017, dated 2020).

tested on: HBsAg; experiment: HBsAg assay (secreted HBsAg by CLIA in HepG2.2.15 cells); assay type: cell-based, hepatitis B virus (HBV); details: Hepatitis B virus, HepG2.2.15, 96 h
Experimental: HepG2.2.15 cells (Sells et al, Proc Natl Acad Sci USA. 1987 February; 84(4):1005-9), a constitutively HBV-expressing cell line, were cultured in DMEM medium supplemented with 10% FBS and 400 μg/mL G418, and maintained in 5% CO2 at 37° C.
HepG2.2.15 cells were seeded into 96-well plates at 3×10^4 cells/well. The next day, the cells were treated with a five-fold serial dilution series of the compound in DMSO. The final DMSO concentration in all wells was 0.5% and 0.5% DMSO was used as no drug control. After four days of incubation with compounds, the supernatants were harvested and measured for HBsAg concentration
The HBsAg chemiluminescence immunoassay (CLIA) kit was used to measure the levels of secreted HBsAg. Specifically, 50 μL of culture supernatant was transferred to the CLIA assay plate and 50 μL of enzyme conjugate reagent was added into each well. The plates were sealed and incubated for 1 hour at room temperature. The supernatant-enzyme-mixture was discarded and wells were washed for 6 times. The residual liquid was removed by plating on tissue paper. 25 μL of substrate A and B were added into each well. Luminance was measured using a spectrometer (Tecan Infinite® F200) after 10 minutes incubation. IC50 value was extrapolated based the dose-response curves generated from the data.

Compared with COc1cc2c(cc1-c1ccccc1)CC(C(C)(C)C)n1cc(C(=O)O)c(=O)cc1-2 (stereo not drawn) [Example 33, 6-(tert-butyl)-10-methoxy-2-oxo-9-phenyl-6,7-dihydro-2H-pyrido[2,1-a]isoquinoline-3-carboxylic acid], COc1cccc(-c2cc3c(cc2OC)-c2cc(=O)c(C(=O)O)cn2C(C(C)(C)C)C3)c1 (stereo not drawn) [Example 36, 6-(tert-butyl)-10-methoxy-9-(3-methoxyphenyl)-2-oxo-6,7-dihydro-2H-pyrido[2,1-a]isoquinoline-3-carboxylic acid] is 2-fold lower in IC50: 20 nM for the first, 10 nM for the second.

Going from CCc1ccc(-c2cc3c(cc2OC)-c2cc(=O)c(C(=O)O)cn2C(C(C)(C)C)C3)cc1 (stereo not drawn) [Example 34, 6-(tert-butyl)-9-(4-ethylphenyl)-10-methoxy-2-oxo-6,7-dihydro-2H-pyrido[2,1-a]isoquinoline-3-carboxylic acid] to COc1ccc(-c2cc3c(cc2OC)-c2cc(=O)c(C(=O)O)cn2C(C(C)(C)C)C3)cc1 (stereo not drawn) [Example 35, 6-(tert-butyl)-10-methoxy-9-(4-methoxyphenyl)-2-oxo-6,7-dihydro-2H-pyrido[2,1-a]isoquinoline-3-carboxylic acid], the IC50 rises from 36 nM to 290 nM (8.1-fold). The first is the more potent here.

First: COc1cc2c(cc1-c1ccnc(C)c1)CC(C(C)(C)C)n1cc(C(=O)O)c(=O)cc1-2 (stereo not drawn) [Example 38, 6-(tert-butyl)-10-methoxy-9-(2-methylpyridin-4-yl)-2-oxo-6,7-dihydro-2H-pyrido[2,1-a]isoquinoline-3-carboxylic acid]
Second: COc1cc2c(cc1-c1cccnc1C)CC(C(C)(C)C)n1cc(C(=O)O)c(=O)cc1-2 (stereo not drawn) [Example 39, 6-(tert-butyl)-10-methoxy-9-(2-methylpyridin-3-yl)-2-oxo-6,7-dihydro-2H-pyrido[2,1-a]isoquinoline-3-carboxylic acid]
The IC50 of the first is 5-fold lower: 5 nM for the first, 25 nM for the second. The first is the more potent here.

Compared with COc1cc2c(cc1-c1ccc(N3CCOCC3)nc1)CC(C(C)(C)C)n1cc(C(=O)O)c(=O)cc1-2 (stereo not drawn) [Example 40, 6-(tert-butyl)-10-methoxy-9-(6-morpholinylpyridin-3-yl)-2-oxo-6,7-dihydro-2H-pyrido[2,1-a]isoquinoline-3-carboxylic acid], COc1cc2c(cc1-c1ccc(N3CCCC3)nc1)CC(C(C)(C)C)n1cc(C(=O)O)c(=O)cc1-2 (stereo not drawn) [Example 44, 6-(tert-butyl)-10-methoxy-2-oxo-9-(6-(pyrrolidin-1-yl)pyridin-3-yl)-6,7-dihydro-2H-pyrido[2,1-a]isoquinoline-3-carboxylic acid] is 1.7-fold higher in IC50: 6 nM for the first, 10 nM for the second. The first is the more potent here.

Compared with COc1cc2c(cc1-c1ccc(C(F)(F)F)nc1)CC(C(C)(C)C)n1cc(C(=O)O)c(=O)cc1-2 (stereo not drawn) [Example 41, 6-(tert-butyl)-10-methoxy-2-oxo-9-(6-trifluoromethylpyridin-3-yl)-6,7-dihydro-2H-pyrido[2,1-a]isoquinoline-3-carboxylic acid], COc1cc2c(cc1-c1ccc(N(C)C)nc1)CC(C(C)(C)C)n1cc(C(=O)O)c(=O)cc1-2 (stereo not drawn) [Example 43, 6-(tert-butyl)-9-(6-(dimethylamino)pyridin-3-yl)-10-methoxy-2-oxo-6,7-dihydro-2H-pyrido[2,1-a]isoquinoline-3-carboxylic acid] is 2-fold lower in IC50: 2 nM for the first, 1 nM for the second.

Compared with COCCOc1ccc(-c2cc3c(cc2OC)-c2cc(=O)c(C(=O)O)cn2C(C(C)(C)C)C3)cn1 (stereo not drawn) [Example 42, 6-(tert-butyl)-10-methoxy-9-(6-(2-methoxyethoxy)pyridin-3-yl)-2-oxo-6,7-dihydro-2H-pyrido[2,1-a]isoquinoline-3-carboxylic acid], COc1cc2c(cc1-c1ccc(N3CCNCC3)nc1)CC(C(C)(C)C)n1cc(C(=O)O)c(=O)cc1-2 (stereo not drawn) [Example 45, 6-(tert-butyl)-10-methoxy-2-oxo-9-(6-(piperazin-1-yl)pyridin-3-yl)-6,7-dihydro-2H-pyrido[2,1-a]isoquinoline-3-carboxylic acid] is 7-fold higher in IC50: 2 nM for the first, 14 nM for the second. The first is the more potent here.
